Results published in patent US7138361B2, “Herbicidal heterocycles” (E. I. du Pont de Nemours and Company, priority 2000, dated 2006).

How the values were obtained:
Type in all cases: in vivo
[1] = tested on: barnyardgrass (Echinochloa crus-galli); experiment: Test A postemergence, sprayed to runoff; conditions: approx. eleven days
Method in brief: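 Weeds were planted in sandy loam and dosed at the same time either preemergence by soil drench or postemergence by spraying to runoff when two to eighteen cm tall. After about eleven days under greenhouse conditions, injury was scored visually against untreated plants, 0 no effect to 10 complete control.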

[2] = tested on: winter barley (Hordeum vulgare); experiment: Test C postemergence
Method in brief: (§1)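 Test chemicals, formulated in a non-phytotoxic solvent mixture with surfactant, were applied preemergence to planted seeds or postemergence to plants 2 to 18 cm tall (1- to 4-leaf stage). After 12 to 14 days in a greenhouse, injury was visually rated against untreated controls on a 0–100 scale.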

[3] = tested on: Italian ryegrass (Lolium multiflorum); experiment: Test C postemergence
Method in brief: as §1

[4] = tested on: blackgrass (Alopecurus myosuroides); experiment: Test C postemergence
Method in brief: as §1

[5] = tested on: canary grass (Phalaris minor); experiment: Test C postemergence
Method in brief: as §1

[6] = tested on: downy brome (Bromus tectorum); experiment: Test C postemergence
Method in brief: as §1

[7] = tested on: green foxtail (Setaria viridis); experiment: Test C postemergence
Method in brief: as §1

[8] = tested on: wheat (Triticum aestivum); experiment: Test C postemergence
Method in brief: as §1

wild oat (Avena fatua) = experiment: Test C postemergence
Method in brief: as §1

[9] = tested on: windgrass (Apera spica-venti); experiment: Test C postemergence
Method in brief: as §1

[10] = Rate 250 g/ha, scale 0 to 100 (0 no effect, 100 complete control)
[11] = Rate 125 g/ha, scale 0 to 100, 0 no effect, 100 complete control
[12] = Rate 500 g/ha, scale 0 to 100 (0 no effect, 100 complete control)

In the case of `CC(C)(C)c1ccn(C2SCN(c3cccc(C(F)(F)F)c3)C2=O)n1` (centres unmarked) [Compound 1], the “Plant response rating (visual injury vs untreated controls)” value ([1]; Rate 500 g/ha) is reported as 60 and the “Plant response rating (visual injury vs untreated controls)” value ([1]; Rate 2000 g/ha) is reported as 90.

For `CC1(C)CCc2cn(C3CCN(c4cccc(C(F)(F)F)c4)C3=O)nc21` (centres unmarked) [Compound 10], the “Plant response rating (visual injury vs untreated controls)” value ([1]; Rate 500 g/ha) was 20 and the “Plant response rating (visual injury vs untreated controls)” value ([1]; Rate 2000 g/ha) was 10.

For `CC1CCc2cn(C3CCN(c4cccc(C(F)(F)F)c4)C3=O)nc21` (centres unmarked) [Compound 11], the “Plant response rating (visual injury vs untreated controls)” value ([1]; Rate 500 g/ha) was 20 and the “Plant response rating (visual injury vs untreated controls)” value ([1]; Rate 2000 g/ha) was 40.

With `O=C1C(n2cc(Cl)c(C3CC3)n2)CCN1c1cccc(C(F)(F)F)c1` (centres unmarked) [Compound 12] the “Plant response rating (visual injury vs untreated controls)” value ([1]; Rate 500 g/ha) was 0 and the “Plant response rating (visual injury vs untreated controls)” value ([1]; Rate 2000 g/ha) was 0.

`CCC(C)c1nn(C2CCN(c3cccc(C(F)(F)F)c3)C2=O)cc1Cl` (centres unmarked) [Compound 13] was tested, and the “Plant response rating (visual injury vs untreated controls)” value ([1]; Rate 500 g/ha) was 0 and the “Plant response rating (visual injury vs untreated controls)” value ([1]; Rate 2000 g/ha) was 0.

For `CC(C)(C)c1nn(C2CCN(c3cccc(C(F)(F)F)c3)C2=O)cc1Cl` (centres unmarked) [Compound 14], the “Plant response rating (visual injury vs untreated controls)” value ([1]; Rate 500 g/ha) was 0 and the “Plant response rating (visual injury vs untreated controls)” value ([1]; Rate 2000 g/ha) was 0.

In the case of `O=C1C(n2cccn2)CCN1c1cccc(C(F)(F)F)c1` (centres unmarked) [Compound 15], the “Plant response rating (visual injury vs untreated controls)” value ([1]; Rate 500 g/ha) is reported as 10 and the “Plant response rating (visual injury vs untreated controls)” value ([1]; Rate 2000 g/ha) is reported as 10.

`Cc1ccn(C2CCN(c3cccc(C(F)(F)F)c3)C2=O)n1` (centres unmarked) [Compound 16] was tested, and the “Plant response rating (visual injury vs untreated controls)” value ([1]; Rate 500 g/ha) was 0 and the “Plant response rating (visual injury vs untreated controls)” value ([1]; Rate 2000 g/ha) was 10.

For `O=C1C(n2ccc(C3CC3)n2)SCN1c1cccc(C(F)(F)F)c1` (centres unmarked) [Compound 26], the “Plant response rating (visual injury vs untreated controls)” value ([1]; Rate 500 g/ha) was 90 and the “Plant response rating (visual injury vs untreated controls)” value ([1]; Rate 2000 g/ha) was 90.

In the case of `CC(C)c1ccn(C2OCN(c3cccc(C(F)(F)F)c3)C2=O)n1` (centres unmarked) [Compound 27], the “Plant response rating (visual injury vs untreated controls)” value ([1]; Rate 500 g/ha) is reported as 70 and the “Plant response rating (visual injury vs untreated controls)” value ([1]; Rate 2000 g/ha) is reported as 80.

`O=C1C(n2ccc(C3CC3)n2)OCN1c1cccc(C(F)(F)F)c1` (centres unmarked) [Compound 28] was tested, and the “Plant response rating (visual injury vs untreated controls)” value ([1]; Rate 500 g/ha) was 60 and the “Plant response rating (visual injury vs untreated controls)” value ([1]; Rate 2000 g/ha) was 60.

For `CCC(CC)c1ccn(C2OCN(c3cccc(OC(F)(F)F)c3)C2=O)n1` (centres unmarked) [Compound 68], the “Plant response rating, Barley, Winter” value [2, 10] was 0.

With `CC1(c2ccn(C3OCN(c4cccc(OC(F)(F)F)c4)C3=O)n2)CC1` (centres unmarked) [Compound 69] the “Plant response rating, Ryegrass” value ([3]; Rate 62 g/ha, scale 0 to 100) was 0, the “Plant response rating, Ryegrass” value [3, 11] was 0 and the “Plant response rating, Ryegrass” value [3, 10] was 0. For the same compound, the “Plant response rating, Ryegrass” value [3, 12] was 30, the “Plant response rating, Blackgrass” value ([4]; Rate 62 g/ha, scale 0 to 100) was 0 and the “Plant response rating, Blackgrass” value [4, 11] was 0. For the same compound, the “Plant response rating, Blackgrass” value [4, 10] was 0, the “Plant response rating, Blackgrass” value [4, 12] was 20 and the “Plant response rating, Canarygrass” value ([5]; Rate 62 g/ha, scale 0 to 100) was 0. For the same compound, the “Plant response rating, Canarygrass” value [5, 11] was 0, the “Plant response rating, Canarygrass” value [5, 10] was 0 and the “Plant response rating, Canarygrass” value [5, 12] was 0. For the same compound, the “Plant response rating, Downy Brome” value ([6]; Rate 62 g/ha, scale 0 to 100) was 0, the “Plant response rating, Downy Brome” value [6, 11] was 0 and the “Plant response rating, Downy Brome” value [6, 10] was 0. For the same compound, the “Plant response rating, Downy Brome” value [6, 12] was 0, the “Plant response rating, Foxtail, Green” value ([7]; Rate 62 g/ha, scale 0 to 100) was 0 and the “Plant response rating, Foxtail, Green” value [7, 11] was 30. The “Plant response rating, Foxtail, Green” value [7, 10] was 30, the “Plant response rating, Foxtail, Green” value [7, 12] was 60 and the “Plant response rating, Wheat” value ([8]; Rate 62 g/ha, scale 0 to 100) was 0. The “Plant response rating, Wheat” value [8, 11] was 0, the “Plant response rating, Wheat” value [8, 10] was 0 and the “Plant response rating, Wheat” value [8, 12] was 0. The “Plant response rating, Wild Oat” value (wild oat (Avena fatua); Rate 62 g/ha, scale 0 to 100) was 0, the “Plant response rating, Wild Oat” value (wild oat (Avena fatua); [11]) was 0 and the “Plant response rating, Wild Oat” value (wild oat (Avena fatua); [10]) was 0. The “Plant response rating, Wild Oat” value (wild oat (Avena fatua); [12]) was 20, the “Plant response rating, Windgrass” value ([9]; Rate 62 g/ha, scale 0 to 100) was 0 and the “Plant response rating, Windgrass” value [9, 11] was 0. For the same compound, the “Plant response rating, Windgrass” value [9, 10] was 0, the “Plant response rating, Windgrass” value [9, 12] was 20 and the “Plant response rating, Barley, Winter” value ([2]; Rate 62 g/ha, scale 0 to 100) was 0. For the same compound, the “Plant response rating, Barley, Winter” value [2, 11] was 0 and the “Plant response rating, Barley, Winter” value [2, 12] was 10.

For `CC(C)(C)c1ccn(C2CCN(c3cccc(I)c3)C2=O)n1` (centres unmarked) [Compound 88], the “Plant response rating (visual injury vs untreated controls)” value ([1]; Rate 500 g/ha) was 30 and the “Plant response rating (visual injury vs untreated controls)” value ([1]; Rate 2000 g/ha) was 80.

In the case of `Cc1ccc(N2CCC(n3ccc(C(C)(C)C)n3)C2=O)cc1OCCCl` (centres unmarked) [Compound 109], the “Plant response rating, Barley, Winter” value [2, 10] is reported as 0.

In the case of `CC(C)(C)c1ccn(C2CCN(c3cccc(C(F)(F)F)c3)C2=O)n1` (centres unmarked) [Example 3, 3-[3-(1,1-dimethylethyl)-1H-pyrazol-1-yl]-1-[3-(trifluoromethyl)phenyl]-2-pyrrolidinone], the “Plant response rating (visual injury vs untreated controls)” value ([1]; Rate 250 g/ha) is reported as 20 and the “Plant response rating (visual injury vs untreated controls)” value ([1]; Rate 1000 g/ha) is reported as 10.

`CC(C)(C)c1ccn(C2OCN(c3cccc(C(F)(F)F)c3)C2=O)n1` (centres unmarked) [compound 9] was tested, and the “Plant response rating (visual injury vs untreated controls)” value ([1]; Rate 500 g/ha) was 80 and the “Plant response rating (visual injury vs untreated controls)” value ([1]; Rate 2000 g/ha) was 90.
